These results are taken from ChEMBL document CHEMBL1156425, “Proteasome inhibition induces glutathione synthesis and protects cells from oxidative stress: relevance to Parkinson disease” (J Biol Chem, 2007).

Experiment [1] relates to PC-12. The experiment is described as follows: Inhibition of 6-hydroxydopamine induced cytotoxicity in rat PC12 cells pretreated for 24 hrs assessed as elevation of intracellular glutathione level. Type of experiment: functional, cell-based.
Experiment [2] concerns PC-12. The experiment is described as follows: Inhibition of hydrogen peroxide induced cytotoxicity in rat PC12 cells pretreated for 24 hrs assessed as elevation of intracellular glutathione level. Type of experiment: functional, cell-based.
Experiment [3] deals with PC-12. The experiment in a line: Increase in reduced glutathione level in rat PC12 cells after 24 hrs. Type of experiment: functional, cell-based.
In experiment [4] the test system is PC-12. The experiment is described as follows: Increase in glutathione level in differentiated rat PC12 cells after 24 hrs. In kind it is functional, cell-based.
The test system of experiment [5] is PC-12. The experiment is described as follows: Reversal of cytoprotection activity in rat PC12 cells pretreated at 1 uM for 24 hrs in presence of p38 MAPK inhibitor SB-203580. Type of experiment: functional, cell-based.
Experiment [6] deals with PC-12. The experiment is described as follows: Inhibition of 6-hydroxydopamine induced cytotoxicity in differentiated rat PC12 cells pretreated for 24 hrs by MTT assay. In kind it is functional, cell-based.
Experiment [7] relates to PC-12. The experiment is described as follows: Inhibition of 6-hydroxydopamine induced cytotoxicity in differentiated rat PC12 cells pretreated for 24 hrs by lactate dehydrogenase release assay. In kind it is functional, cell-based.
Experiment [8] has as its system PC-12. The experiment is described as follows: Inhibition of proteosome activity in rat PC12 cells at 0.1 uM after 6 hrs relative to control. Type of experiment: cell-based. Also on record: scale not given: the % may be the effect or the level left.
In experiment [9] the test system is PC-12. The experiment is described as follows: Inhibition of proteosome activity in rat PC12 cells at 0.1 uM after 24 hrs relative to control. In kind it is cell-based. Also noted: scale not given: the % may be the effect or the level left.
In experiment [10] the test system is PC-12. The experiment in a line: Inhibition of proteosome activity in rat PC12 cells at 0.3 uM after 6 hrs relative to control. In kind it is cell-based. Also noted: scale not given: the % may be the effect or the level left.
Experiment [11] has as its system PC-12. The experiment in a line: Inhibition of proteosome activity in rat PC12 cells at 0.3 uM after 24 hrs relative to control. In kind it is cell-based. Also noted: scale not given: the % may be the effect or the level left.
Experiment [12] has as its system PC-12. The experiment in a line: Inhibition of proteosome activity in rat PC12 cells at 1 uM after 6 hrs relative to control. Type of experiment: cell-based. Also on record: scale not given: the % may be the effect or the level left.
The test system of experiment [13] is PC-12. The experiment is described as follows: Inhibition of proteosome activity in rat PC12 cells at 1 uM after 24 hrs relative to control. Type of experiment: cell-based. Also on record: scale not given: the % may be the effect or the level left.
Experiment [14] concerns PC-12. The experiment is described as follows: Inhibition of hydrogen peroxide induced cytotoxicity in rat PC12 cells pretreated for 24 hrs by MTT assay. In kind it is functional, cell-based.
The subject of experiment [15] is PC-12. The experiment in a line: Inhibition of 300 uM 6-hydroxydopamine induced ROS production in rat PC12 cells pretreated at 1 uM for 24 hrs by MTT assay. In kind it is functional, cell-based.
In experiment [16] the test system is PC-12. The experiment in a line: Inhibition of 300 uM hydrogen peroxide induced ROS production in rat PC12 cells pretreated at 1 uM for 24 hrs by MTT assay. In kind it is functional, cell-based.
The subject of experiment [17] is PC-12. The experiment is described as follows: Inhibition of 150 uM 6-hydroxydopamine induced ROS production in rat PC12 cells pretreated for 24 hrs by MTT assay. In kind it is functional, cell-based.
The subject of experiment [18] is PC-12. The experiment in a line: Inhibition of 200 uM hydrogen peroxide induced ROS production in rat PC12 cells pretreated for 24 hrs by MTT assay. In kind it is functional, cell-based.
Experiment [19] has as its system PC-12. The experiment is described as follows: Increase in reduced glutathione level in rat PC12 cells at 1 uM after 24 hrs. Type of experiment: functional.
For experiment [20], the system named is PC-12. The experiment in a line: Increase in oxidized glutathione level in rat PC12 cells at 1 uM after 24 hrs. Type of experiment: functional, cell-based.
Experiment [21] deals with PC-12. The experiment in a line: Increase in oxidized glutathione level in rat PC12 cells at 1 uM after 12 hrs. Type of experiment: functional, cell-based.
Experiment [22] concerns PC-12. The experiment in a line: Reversal of increase in glutathione level in rat PC12 cells at 1 uM in presence of 10 nM cycloheximide after 24 hrs relative to control. In kind it is functional.
Experiment [23] deals with PC-12. The experiment is described as follows: Reversal of increase in glutathione level in rat PC12 cells at 1 uM in presence of 30 nM cycloheximide after 24 hrs relative to control. Type of experiment: functional.
Experiment [24] concerns PC-12. The experiment is described as follows: Reversal of increase in glutathione level in rat PC12 cells at 1 uM in presence of 100 nM cycloheximide after 24 hrs relative to control. In kind it is functional.
Experiment [25] concerns PC-12. The experiment in a line: Reversal of increase in glutathione level in rat PC12 cells at 1 uM in presence of 3 uM SB-203580 after 24 hrs relative to control. Type of experiment: functional.
Experiment [26] has as its system PC-12. The experiment in a line: Reversal of increase in glutathione level in rat PC12 cells at 1 uM in presence of 10 uM SB-203580 after 24 hrs relative to control. Type of experiment: functional.
For experiment [27], the system named is PC-12. The experiment is described as follows: Reversal of increase in glutathione level in rat PC12 cells at 1 uM in presence of 30 uM SB-203580 after 24 hrs relative to control. Type of experiment: functional.
Experiment [28] deals with PC-12. The experiment is described as follows: Reversal of increase in glutathione level in rat PC12 cells at 1 uM in presence of 3 uM BIM after 24 hrs relative to control. Type of experiment: functional.
The subject of experiment [29] is PC-12. The experiment is described as follows: Reversal of increase in glutathione level in rat PC12 cells at 1 uM in presence of 10 uM wortmannin after 24 hrs relative to control. Type of experiment: functional.
Experiment [30] concerns PC-12. The experiment in a line: Reversal of increase in glutathione level in rat PC12 cells at 1 uM in presence of 30 uM PD-98059 after 24 hrs relative to control. In kind it is functional.
Experiment [31] concerns PC-12. The experiment is described as follows: Reversal of increase in glutathione level in rat PC12 cells at 1 uM in presence of 10 uM SP600125 after 24 hrs relative to control. In kind it is functional.
Experiment [32] deals with PC-12. The experiment in a line: Increase in GLCLC subunit mRNA expression in rat PC12 cells at 1 uM after 12 hrs. Type of experiment: functional, cell-based.
Experiment [33] concerns PC-12. The experiment is described as follows: Reversal of increase in GLCLC subunit mRNA expression in rat PC12 cells at 1 uM after 12 hrs in presence of p38 MAPK inhibitor SB-203580. In kind it is functional, cell-based.
For experiment [34], the system named is PC-12. The experiment is described as follows: Inhibition of 6-hydroxydopamine-induced cytotoxicity in rat PC12 cells pretreated for 24 hrs by MTT assay. In kind it is functional, cell-based.
Experiment [35] concerns PC-12. The experiment is described as follows: Translocation of Nrf2 protein to nucleus in rat PC12 cells at 1 uM around 6 or 9 hrs. Type of experiment: functional, cell-based.
In experiment [36] the test system is PC-12. The experiment is described as follows: Cytotoxicity against rat PC12 cells after 24 hrs by MTT assay. Type of experiment: functional, cell-based. As to conditions: PC-12, 24 h.

pEC50: −log10 of the molar value. Calls of active or inactive are those of the source. No cut-off for these calls is given here. Where a SMILES comes first, the peptide text is derived from it. The star is where a group is joined. Cbz = O=C(OCc1ccccc1)*; OtBu = CC(C)(C)O*

Turning to `CC(=O)N[C@@H](CS)C(=O)O`, the result in the experiment with PC-12 [1] and in the experiment with PC-12 [2] was Active.

For `CC[C@H](C)[C@H](NC(=O)OCc1ccccc1)C(=O)N[C@@H](CCC(=O)OC(C)(C)C)C(=O)N[C@@H](C)C(=O)N[C@H](C=O)CC(C)C` (Cbz-IE(OtBu)AL-aldehyde), the outcome in the experiment with PC-12 [3] was Active.

As to `CC(C)C[C@@H](C=O)NC(=O)[C@H](CC(C)C)NC(=O)[C@H](CC(C)C)NC(=O)OCc1ccccc1` (Cbz-Leu-Leu-Leu-aldehyde), in the experiment with PC-12 [3], the outcome was Active.

On to `CC(=O)N[C@@H](CSC(=O)[C@]1([C@@H](O)C(C)C)NC(=O)[C@H](C)[C@@H]1O)C(=O)O` [LACTACYSTIN], for which the Activity entry is “Dose-dependent effect” in the experiment with PC-12 [4]; “Dose-dependent effect” in the experiment with PC-12 [6]; “Dose-dependent effect” in the experiment with PC-12 [3]; 98% in the experiment on PC-12 [8]; 94.3% in the experiment on PC-12 [9]; 70.3% with PC-12 [10]. The Activity in the experiment with PC-12 [11] was 84.9%; in the experiment on PC-12 [12], 49.7%; in the experiment on PC-12 [13], 77.2%; in the experiment on PC-12 [14] it was “Dose-dependent effect”; in the experiment on PC-12 [19], 320.5 nmol/mg; in the experiment with PC-12 [22], 216.8 nmol/mg. The Activity with PC-12 [23] was 150 nmol/mg; with PC-12 [24], 98.3 nmol/mg; in the experiment with PC-12 [25], 220 nmol/mg; in the experiment on PC-12 [26], 190.5 nmol/mg; with PC-12 [27], 133.5 nmol/mg; in the experiment with PC-12 [28] it was 354 nmol/mg. Further, the Activity in the experiment on PC-12 [29] was 248.7 nmol/mg; in the experiment with PC-12 [30], 234 nmol/mg; with PC-12 [31], 341.4 nmol/mg; in the experiment with PC-12 [34], “Dose-dependent effect”. Also, the outcome in the experiment with PC-12 [5], in the experiment on PC-12 [7], with PC-12 [15], in the experiment on PC-12 [16], in the experiment on PC-12 [17] and with PC-12 [18] was Active. The outcome with PC-12 [20], in the experiment with PC-12 [32], with PC-12 [33] and in the experiment on PC-12 [35] was Active. The result in the experiment with PC-12 [21] was inactive.

For the molecule `NCCc1cc(O)c(O)cc1O` [OXIDOPAMINE], in the experiment with PC-12 [36], the pEC50 is 3.98.
